Laboratory results reported in patent US20100168233A1, “TERBINAFINE FORMULATION” (POWER PAPER LTD, priority 2007, published 2010).
Counter-ions that a name gives are not always drawn. Like-named read-outs stand apart in the source and are kept apart here. Values belong to the molecule of their own block, whether it stands above or below them.

Assays:
[1] = In vitro testing of iontophoretic delivery of terbinafine forms and hydrogel formulations to the nail bed
Description: The acetic acid terbinafine salt may be used in the preparation of a medication for the treatment of any suitable disorder, such as the treatment of a fungal infection. In one aspect, the acetic acid terbinafine salt may be for treatment of onychomycosis.
The terbinafine acetate and/or mixture of terbinafine and acetic acid may be added to a hydrogel.

[2] = system: dermatophytes; conditions: cited from earlier work
[3] = cited from earlier work
[4] = cited from earlier work; remark: listed apart in the source

delivery of terbinafine to the nail bed [1]: about 45 μg/cm^2
Molecule: CN(C/C=C/C#CC(C)(C)C)Cc1cccc2ccccc12 [terbinafine HCl, terbinafine hydrochloride]
minimum inhibitory concentration (MIC) for dermatophytes [2]: about 0.0015 μg/ml

delivery of terbinafine to the nail bed [1]: about 10 μg/cm^2
Molecule: CN(C/C=C/C#CC(C)(C)C)Cc1cccc2ccccc12 [terbinafine base, N,6,6-trimethyl-N-(naphthalen-1-ylmethyl) hept-2-en-4-yn-1-amine]
water solubility ([3]; listed as Terbinafine base): significantly less water soluble

Molecule: CN(C/C=C/C#CC(C)(C)C)Cc1cccc2ccccc12 [terbinafine, N,6,6-trimethyl-N-(naphthalen-1-ylmethyl) hept-2-en-4-yn-1-amine]
pKa of terbinafine [4]: about 7.1
solubility in methanol and ethanol [3]: very soluble
water solubility [3]: low

Molecule: terbinafine acetate
delivery of terbinafine to the nail bed ([1]; in vitro, iontophoretic delivery, similar conditions): about 150 μg/cm^2
